Experimental data from paper PMC6720008, “A Novel Peptide Ameliorates LPS-Induced Intestinal Inflammation and Mucosal Barrier Damage via Its Antioxidant and Antiendotoxin Effects” (International Journal of Molecular Sciences, 2019).
Where two headings read alike, the source gives them in different places. Ends that are not written are not given here.

Tests used:
[1] = Ex vivo stability in plasma; format: in vitro ADME, rat
Description: Figure 2 The mean plasma concentrations of LL-37, TP5, and LTP over times. The concentration of each target peptide in plasma in vitro at the selected times was quantified by HPLC.
Rat plasma was collected from healthy adult rats by centrifugation of whole blood samples. LL-37, TP5, and LTP were directly added to rat plasma (10 μg/mL), after which the plasma samples were incubated in a 37 °C water bath. At different times, the samples were collected into pre-chilled tubes which contained 1 mL of acidic acetone (hydrochloric acid/acetone/H2O, 1:40:5, by volume). Subsequently, the mixture was centrifuged at 2 × 10^4 rpm at 4 °C for 20 min. The precipitates were dried in vacuo, after which the dried precipitates were dissolved in 0.5 mL of 1 M acetic acid. The peptide analysis was carried out according to the protocol for the study of TP5 using HPLC [64]. The half-lives of the peptides were calculated by a logarithm-linear regression analysis of the peptide concentrations.

[2] = test system: RAW264.7 macrophage cells; details: CCK-8, 24 h or 72 h
Description: RAW264.7 cells were pre-seeded in DMEM medium overnight. The cells were treated with various concentrations of peptides or without peptides at 37 °C and 5% CO2 for 24 h (A) or 72 h (B). They were incubated with CCK-8 solution for 4 h, and then, they were measured at 450 nm. Data are given as the mean value ± standard error from eight biological replicates. *: p ≤ 0.05, **: p ≤ 0.01, ***: p ≤ 0.001.
The murine macrophage cell line RAW264.7 was purchased from the Shanghai Cell Bank, the Institute of Cell Biology, China Academy of Sciences (Shanghai, China). RAW264.7 cells were cultured in Dulbecco’s modified Eagle’s medium (DMEM; Hyclone, Logan, UT, USA) supplemented with 10% (v/v) foetal bovine serum (Bioscience) and 1% (v/v) penicillin/streptomycin (Hyclone) in a 37 °C humidified incubator containing 5% CO2.
The viability of peptide-treated RAW264.7 cells was measured using the Cell Counting Kit-8 (CCK-8) Assay Kit (Dojindo, Japan) [63]. The cells were pre-seeded on a 96-well plate at a density of 3 × 10^4 cells/mL overnight. […] The absorbance at 450 nm was measured with a microplate reader. Cell viability was calculated as: Cell viability (%) = (OD450 (sample)/OD450(control)) × 100%(1) where OD450 (sample) is the absorbance at 450 nm of the cells with peptides treated, and OD450 (control) is the absorbance at 450 nm of the cells without peptides treated.

[3] = In vitro LPS neutralization, chromogenic end-point TAL assay; format: biochemical; details: LPS 1.0 U/mL, peptide 0 to 64 μg/mL, 37 °C 15 min, absorbance 540 nm, three biological replicates
Description: Figure 9 LPS neutralization activity of LTP in vitro and in vivo. (A) The LPS concentration in mouse plasma. (B) In-vitro LPS neutralization by LTP. LPS neutralization activity of LTP, LL-37, TP5, and PMB were determined using the chromogenic in vitro TAL assay. Data are presented as the mean value ± standard error from three biological replicates. *: p ≤ 0.05, ****: p ≤ 0.0001.
The neutralization of LPS by the peptides was detected using a quantitative Chromogenic End-point Tachypleus Amebocyte Lysate (CE TAL) assay with the QCL-1000 kit (Xiamen, China). Experiments were carried out according to the institutional guidelines. A constant concentration of LPS (1.0 U/mL final concentration) was incubated with different concentrations of polymyxin B (PMB) or the peptides (0 to 64 μg/mL final concentration) at 37 °C for 15 min in the wells of pyrogenic sterile microliters plates. Subsequently, the mixtures were incubated at 37 °C for 6 min in the presence of TAL assay reagent, after which the absorbances were measured at 540 nm.

[4] = rat plasma, peptide 10 μg/mL, 37 °C water bath, HPLC, logarithm-linear regression, mean ± standard error, three biological replicates, read-out: t1/2

Compound RKDVY [TP5, Thymopentin] has a half-life at 10 μg/mL [1, 4] of 0.022 ± 0.004 h and a metabolised at 5 min, 10 μg/mL ([1]; rat plasma, peptide 10 μg/mL, 37 °C, HPLC, three biological replicates, read-out: decrease of plasma concentration after incubation for 5 min) of 95%.

For IGKEFKRIVQRIKDFLRNLVPRTERKDVY [LTP], the half-life at 10 μg/mL [1, 4] was 4 ± 0.919 h, the “cytotoxicity on RAW264.7 cells compared with the parental peptides” value ([2]; eight biological replicates) was “lower cytotoxicity than LL-37 and TP5” and the “cytotoxicity towards RAW264.7 cells” value ([2]; highest concentration of 60 μg/mL, 37 °C, 5% CO2, absorbance 450 nm, mean of eight biological replicates) was “no significant cytotoxicity”. The half-life in plasma t1/2 was 4 h.

`CC[C@H](C)[C@H](NC(=O)[C@H](CCCCN)NC(=O)[C@H](CCC(=O)O)NC(=O)[C@H](CCCCN)NC(=O)[C@H](CO)NC(=O)[C@H](CCCCN)NC(=O)[C@H](CCCNC(=N)N)NC(=O)[C@H](Cc1ccccc1)NC(=O)[C@H](Cc1ccccc1)NC(=O)[C@H](CC(=O)O)NC(=O)CNC(=O)[C@H](CC(C)C)NC(=O)[C@@H](N)CC(C)C)C(=O)NCC(=O)N[C@@H](CCCCN)C(=O)N[C@@H](CCC(=O)O)C(=O)N[C@@H](Cc1ccccc1)C(=O)N[C@@H](CCCCN)C(=O)N[C@@H](CCCNC(=N)N)C(=O)N[C@H](C(=O)N[C@H](C(=O)N[C@@H](CCC(N)=O)C(=O)N[C@@H](CCCNC(=N)N)C(=O)N[C@H](C(=O)N[C@@H](CCCCN)C(=O)N[C@@H](CC(=O)O)C(=O)N[C@@H](Cc1ccccc1)C(=O)N[C@@H](CC(C)C)C(=O)N[C@@H](CCCNC(=N)N)C(=O)N[C@@H](CC(N)=O)C(=O)N[C@@H](CC(C)C)C(=O)N[C@H](C(=O)N1CCC[C@H]1C(=O)N[C@@H](CCCNC(=N)N)C(=O)N[C@H](C(=O)N[C@@H](CCC(=O)O)C(=O)N[C@@H](CO)C(=O)O)[C@@H](C)O)C(C)C)[C@@H](C)CC)C(C)C)[C@@H](C)CC` [LL-37] gave a half-life at 10 μg/mL ([1]; rat, plasma) of 4.04 ± 0.752 h.

With polymyxin B [PMB] the “50% binding rate value (LPS neutralization)” value [3] was 1 µg/mL.
